{
  "source": "ChEMBL document CHEMBL1201862",
  "about": "“PubChem BioAssay data set” (2004)",
  "key": {"[1]": {"assay": "Trypanosoma cruzi growth suppression in host cells – NIH3T3 host cells, beta-gal luminescence, confirmation (AID 2044);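 further: luminescent beta-galactosidase reporter signal from transgenic T. cruzi replicating inside host cells; inhibitors lower the luminescence signal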", "format": "functional, cell-based"}, "[2]": {"assay": "cells"}, "[3]": {"biological_target": "Nonstructural protein 1 (Influenza A virus, UniProt Q194T2)", "sequence (Q194T2 whole entry)": "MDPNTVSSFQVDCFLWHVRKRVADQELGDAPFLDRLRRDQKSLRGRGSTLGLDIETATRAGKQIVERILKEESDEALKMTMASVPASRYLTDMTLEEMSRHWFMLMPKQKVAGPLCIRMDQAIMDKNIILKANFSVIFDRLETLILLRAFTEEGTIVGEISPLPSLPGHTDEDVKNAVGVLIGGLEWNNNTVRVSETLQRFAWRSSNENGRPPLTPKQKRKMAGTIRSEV", "format": "functional, Influenza A virus (A/California/07/2009(H1N1))"}, "[4]": {"assay": "NIH3T3 cell viability loss – ATP luminescence, mouse fibroblasts, counter-screen, dose response (AID 2010);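 further: cells exposed to compound for about 90 hours before reading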", "format": "functional, cell-based"}, "[5]": {"assay": "viability inhibitors of stage V gametocytes – luminescence, dose response (AID 1117278);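 further: gametocytes exposed to compound for 24 hours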", "format": "functional, cell-based"}, "[6]": {"assay": "viability loss in human Jurkat cells – cell-based, luminescence, cytotoxicity control for P. falciparum gametocyte viability project, dose response (AID 1117277);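 further: potency reflects loss of cellular ATP meaning fewer viable cells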", "format": "functional"}, "[7]": {"biological_target": "T1, Estrogen receptor beta (Homo sapiens, UniProt Q92731)", "T1 sequence (Q92731 whole entry)": "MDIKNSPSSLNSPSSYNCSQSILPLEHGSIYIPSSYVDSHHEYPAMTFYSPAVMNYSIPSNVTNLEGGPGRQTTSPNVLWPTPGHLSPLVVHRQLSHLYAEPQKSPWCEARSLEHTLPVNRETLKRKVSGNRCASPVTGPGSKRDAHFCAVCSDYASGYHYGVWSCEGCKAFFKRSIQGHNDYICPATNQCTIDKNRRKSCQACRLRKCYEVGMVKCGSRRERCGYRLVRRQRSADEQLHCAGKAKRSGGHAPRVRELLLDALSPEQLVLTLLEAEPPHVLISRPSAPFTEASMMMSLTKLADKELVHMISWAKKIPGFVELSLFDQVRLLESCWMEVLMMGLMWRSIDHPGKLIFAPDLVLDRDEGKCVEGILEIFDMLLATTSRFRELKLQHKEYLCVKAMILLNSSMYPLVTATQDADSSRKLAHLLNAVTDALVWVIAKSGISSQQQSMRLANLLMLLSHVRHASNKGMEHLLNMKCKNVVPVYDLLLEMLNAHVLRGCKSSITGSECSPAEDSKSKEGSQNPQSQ"}, "[8]": {"biological_target": "T1, Estrogen receptor beta", "assay": "blockers of SRC-3 recruitment to ERβ – biochemical, ELISA, streptavidin-HRP readout, orthogonal assay, confirmation (AID 1060)"}, "[9]": {"biological_target": "T2, Streptokinase A (Streptococcus pyogenes serotype M1, UniProt P10520)", "T2 sequence (P10520 whole entry)": "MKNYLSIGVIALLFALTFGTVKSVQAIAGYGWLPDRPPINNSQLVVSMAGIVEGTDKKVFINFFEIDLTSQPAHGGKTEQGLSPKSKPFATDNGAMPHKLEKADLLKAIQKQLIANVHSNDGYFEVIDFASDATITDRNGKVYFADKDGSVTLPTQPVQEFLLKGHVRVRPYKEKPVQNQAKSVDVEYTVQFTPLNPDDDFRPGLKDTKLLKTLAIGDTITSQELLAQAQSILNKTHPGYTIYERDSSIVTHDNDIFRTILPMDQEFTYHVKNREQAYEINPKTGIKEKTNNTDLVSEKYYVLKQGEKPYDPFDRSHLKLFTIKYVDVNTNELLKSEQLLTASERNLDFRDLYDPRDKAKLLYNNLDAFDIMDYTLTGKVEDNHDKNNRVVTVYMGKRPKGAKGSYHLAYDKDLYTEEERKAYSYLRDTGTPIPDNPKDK", "assay": "viability-normalized secreted streptokinase activity reduction – plasminogen activation absorbance, OD405, dose response (AID 1914);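 further: secreted streptokinase activity via plasminogen activation per viability signal from cell pellet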", "format": "functional, Streptococcus pyogenes M1 GAS"}, "[10]": {"biological_target": "Cytochrome P450 2C9 (Homo sapiens, UniProt P11712)", "sequence (P11712 whole entry)": "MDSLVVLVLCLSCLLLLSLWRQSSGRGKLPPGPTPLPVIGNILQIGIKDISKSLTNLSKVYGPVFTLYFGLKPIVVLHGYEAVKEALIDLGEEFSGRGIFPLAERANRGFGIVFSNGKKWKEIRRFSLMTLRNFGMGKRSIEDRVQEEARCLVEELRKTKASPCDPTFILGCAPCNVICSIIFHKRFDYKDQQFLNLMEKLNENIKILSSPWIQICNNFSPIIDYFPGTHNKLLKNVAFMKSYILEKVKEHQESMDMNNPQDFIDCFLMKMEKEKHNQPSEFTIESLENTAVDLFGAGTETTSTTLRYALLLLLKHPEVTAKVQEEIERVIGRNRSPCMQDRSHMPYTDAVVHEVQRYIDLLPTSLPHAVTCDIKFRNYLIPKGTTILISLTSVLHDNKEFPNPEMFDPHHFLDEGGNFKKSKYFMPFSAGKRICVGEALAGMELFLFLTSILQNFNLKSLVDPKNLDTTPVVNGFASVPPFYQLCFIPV"}, "[11]": {"tested_on": "Streptococcus sp. 'group A'", "assay": "Streptococcus pyogenes SK(-)GAS viability under kanamycin – luminescence, BacTiterGlo, confirmation, counter-screen for streptokinase expression inhibitor project, dose response (AID 1900)", "format": "functional, organism-based"}, "[12]": {"tested_on": "Streptococcus", "assay": "GAS UMAA2166 growth inhibition – luminescence, BacTiterGlo, counter-screen for streptokinase expression inhibitor project, dose response (AID 1915);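 further: potency for reduction of bacterial viability or growth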", "format": "functional, organism-based"}, "[13]": {"biological_target": "Neurotensin receptor type 1 (Homo sapiens, UniProt P30989)", "sequence (P30989 whole entry)": "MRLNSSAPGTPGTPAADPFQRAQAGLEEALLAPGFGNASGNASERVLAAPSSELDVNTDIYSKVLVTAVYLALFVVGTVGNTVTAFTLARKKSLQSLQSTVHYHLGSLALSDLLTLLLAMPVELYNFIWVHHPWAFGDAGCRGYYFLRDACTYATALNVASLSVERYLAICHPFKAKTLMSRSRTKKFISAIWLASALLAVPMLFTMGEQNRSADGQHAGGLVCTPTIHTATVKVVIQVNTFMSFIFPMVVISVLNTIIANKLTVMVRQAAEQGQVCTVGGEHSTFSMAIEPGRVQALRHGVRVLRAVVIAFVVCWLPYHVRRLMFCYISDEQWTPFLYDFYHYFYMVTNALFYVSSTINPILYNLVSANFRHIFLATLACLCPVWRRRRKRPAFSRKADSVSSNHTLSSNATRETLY", "format": "functional"}, "[14]": {"biological_target": "Cytochrome P450 2C19 (Homo sapiens, UniProt P33261)", "sequence (P33261 whole entry)": "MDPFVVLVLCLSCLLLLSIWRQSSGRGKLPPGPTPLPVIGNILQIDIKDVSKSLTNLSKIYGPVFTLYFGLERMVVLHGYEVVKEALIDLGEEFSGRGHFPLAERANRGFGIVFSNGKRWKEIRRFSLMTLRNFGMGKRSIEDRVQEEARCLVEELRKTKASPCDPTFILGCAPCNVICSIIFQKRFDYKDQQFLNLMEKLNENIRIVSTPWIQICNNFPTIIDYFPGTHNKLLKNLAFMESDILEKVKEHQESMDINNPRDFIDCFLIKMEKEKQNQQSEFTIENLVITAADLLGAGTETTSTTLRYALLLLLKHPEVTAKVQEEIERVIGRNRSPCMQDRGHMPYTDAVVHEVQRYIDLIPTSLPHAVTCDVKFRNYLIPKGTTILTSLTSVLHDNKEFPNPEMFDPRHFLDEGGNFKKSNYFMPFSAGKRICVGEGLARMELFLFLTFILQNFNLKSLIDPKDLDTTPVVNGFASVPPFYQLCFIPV", "assay": "Cytochrome panel assay with activity outcomes. Panel member name: p450-cyp2c19 Compounds with AC50 equal or less than 10 uM are considered active", "format": "functional", "settings": "read-out: AC50"}, "[15]": {"assay": "A cytotoxicity screen of small molecule inhibitors of the PhoP region in Salmonella typhi identified in the primary screen. [Related pubchem assays: 1850, 1864, 1985 ]", "format": "functional"}, "[16]": {"biological_target": "Melanocortin receptor 4 (Homo sapiens, UniProt P32245)", "sequence (P32245 whole entry)": "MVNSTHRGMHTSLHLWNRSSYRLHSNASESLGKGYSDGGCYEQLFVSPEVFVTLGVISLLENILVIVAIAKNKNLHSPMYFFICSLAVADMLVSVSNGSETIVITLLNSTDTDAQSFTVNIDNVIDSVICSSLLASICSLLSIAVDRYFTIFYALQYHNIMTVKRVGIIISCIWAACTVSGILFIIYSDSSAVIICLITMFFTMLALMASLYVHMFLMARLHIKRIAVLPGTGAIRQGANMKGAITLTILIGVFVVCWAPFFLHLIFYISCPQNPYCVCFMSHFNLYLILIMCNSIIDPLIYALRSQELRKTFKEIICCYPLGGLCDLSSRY", "format": "functional, cell-based"}, "[17]": {"biological_target": "T3, Polyadenylate-binding protein 1 (Homo sapiens, UniProt P11940)", "T3 sequence (P11940 whole entry)": "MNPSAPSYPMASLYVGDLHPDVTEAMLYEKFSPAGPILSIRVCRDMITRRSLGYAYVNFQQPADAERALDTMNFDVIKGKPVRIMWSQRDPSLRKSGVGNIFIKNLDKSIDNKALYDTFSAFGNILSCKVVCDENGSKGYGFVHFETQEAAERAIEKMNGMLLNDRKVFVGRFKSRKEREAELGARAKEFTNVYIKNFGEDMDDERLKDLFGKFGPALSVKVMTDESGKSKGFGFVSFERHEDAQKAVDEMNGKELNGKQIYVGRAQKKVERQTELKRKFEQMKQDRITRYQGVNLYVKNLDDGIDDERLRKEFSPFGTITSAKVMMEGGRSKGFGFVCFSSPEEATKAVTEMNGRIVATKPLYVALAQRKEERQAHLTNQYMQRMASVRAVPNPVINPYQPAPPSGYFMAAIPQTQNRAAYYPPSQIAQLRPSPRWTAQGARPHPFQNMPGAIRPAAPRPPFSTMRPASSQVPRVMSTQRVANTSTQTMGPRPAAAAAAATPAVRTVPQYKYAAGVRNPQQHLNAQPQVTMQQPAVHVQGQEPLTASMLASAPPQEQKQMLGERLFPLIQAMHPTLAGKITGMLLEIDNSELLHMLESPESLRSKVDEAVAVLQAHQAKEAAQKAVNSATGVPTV", "assay": "MLLE binding blockers, Cy5 peptide tracer – biochemical, fluorescence polarization, Cy5-PAM2 peptide, secondary, miRNA deadenylation inhibitor project, dose response (AID 602260)", "format": "functional", "settings": "read-out: IC50_Mean"}, "[18]": {"biological_target": "T3, Polyadenylate-binding protein 1", "assay": "MLLE domain peptide-binding blockers, IC50 – biochemical, fluorescence polarization, FITC-PAM2 peptide, dose response (AID 602259)", "format": "functional", "settings": "read-out: IC50_Mean"}, "[19]": {"assay": "microbe, parasite or virus in culture", "format": "functional", "settings": "Mycobacterium tuberculosis"}, "[20]": {"assay": "Luminescence Cell-Based Dose Retest to Confirm Inhibitors of Cancer Stem Cells. [Related pubchem assays (depositor defined):AID2717, AID2721]", "format": "functional", "settings": "Homo sapiens"}, "[21]": {"tested_on": "INS1", "assay": "INS-1E survival protection against cytokine death – cell-based, luminescence, retest, dose response (AID 449756);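 further: cell death triggered by IL-1 beta plus TNF-alpha plus IFN-gamma mixture; protective hits raise ATP signal compared with cytokine alone wells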", "format": "functional", "settings": "Rattus norvegicus"}, "[22]": {"assay": "viability of HCT116 lacking mutant beta-catenin – cell-based, human colon tumor, dose response (AID 1045);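 further: cells exposed to compound for 60 hours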", "format": "functional"}, "[23]": {"assay": "viability of PTEN-deleted HCT116 cells – cell-based, HCT116 PTEN knockout, dose response (AID 1047);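 further: cells exposed to compound for 60 hours before readout; potency for loss of cell viability measured by luminescence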", "format": "functional"}},
  "note": "The source made the active and inactive calls.",
  "data": [
    {"compound": "Cc1c(C)n(Cc2ccccc2)c2ccc(C(=O)OCCCN(C)C)cc12", "values": [
      {"measurement": "EC50", "setting": "[1]", "result": "< 0.1 µM (active)"},
      {"measurement": "EC50", "setting": "[2]", "result": "0.153 µM (active)"},
      {"measurement": "IC50", "setting": "[3]", "result": "43.7 µM (active)"},
      {"measurement": "EC50", "setting": "[4]", "result": "> 30 µM (not active)"}
    ]},
    {"compound": "CCOC(=O)c1c(NS(=O)(=O)c2cccc(OC)c2)sc2c1CCC2", "values": [
      {"measurement": "IC50", "setting": "[5]", "result": "> 109 µM (inactive)"},
      {"measurement": "IC50", "setting": "[6]", "result": "> 83.3 µM (inactive)"}
    ]},
    {"compound": "O=C(N/N=C/c1ccc(-c2ccccc2Cl)o1)c1ccccc1", "values": [
      {"measurement": "EC50", "setting": "[1]", "result": "< 0.1 µM (active)"},
      {"measurement": "EC50", "setting": "[2]", "result": "0.035 µM (active)"},
      {"measurement": "EC50", "setting": "[4]", "result": "> 60 µM (not active)"}
    ]},
    {"compound": "Cc1noc(C)c1S(=O)(=O)N(CC(=O)O)c1ccc2c(c1)OCO2", "values": [
      {"measurement": "IC50", "setting": "[7]", "result": "9.71 µM (active)"},
      {"measurement": "IC50", "setting": "[8]", "result": "0.084 µM (not active)"}
    ]},
    {"compound": "Cc1cc(C)n(-c2nc(Nc3ccccc3C)nc(-n3nc(C)cc3C)n2)n1", "values": [
      {"measurement": "EC50", "setting": "[9]", "result": "> 150 µM (not active)"},
      {"measurement": "EC50", "setting": "[1]", "result": "1.07 µM (active)"},
      {"measurement": "AC50", "setting": "[10]", "result": "15.8 µM (inconclusive)"},
      {"measurement": "EC50", "setting": "[11]", "result": "8.77 µM (active)"},
      {"measurement": "EC50", "setting": "[12]", "result": "23.2 µM (active)"},
      {"measurement": "EC50", "setting": "[4]", "result": "> 60 µM (inconclusive)"},
      {"measurement": "EC50", "setting": "[13]", "result": "7.86 µM (active)"},
      {"measurement": "AC50", "setting": "[14]", "result": "39.8 µM (inconclusive)"}
    ]},
    {"compound": "CC(=O)Nc1ccccc1-c1nc2ccc(C(=O)N3CCN(c4cc(C)ccc4C)CC3)cc2nc1O", "values": [
      {"measurement": "EC50", "setting": "[15]", "result": "> 50 µM (active)"}
    ]},
    {"compound": "CC(C)NC1=NN=C(c2ccc(F)cc2)CS1", "values": [
      {"measurement": "EC50", "setting": "[15]", "result": "> 50 µM (active)"}
    ]},
    {"compound": "Clc1ccc(C2=Nn3c(nnc3-c3cc(-c4ccccc4)n[nH]3)SC2)cc1", "values": [
      {"measurement": "EC50", "setting": "[16]", "result": "> 89.2 µM (inactive)"},
      {"measurement": "EC50", "setting": "[13]", "result": "37.9 µM (inactive)"}
    ]},
    {"compound": "CC(C)CC(c1nnnn1Cc1ccco1)N1CCN(c2cccc(Cl)c2)CC1", "note": "(configuration not stated)", "values": [
      {"measurement": "EC50", "setting": "[15]", "result": "> 50 µM (active)"}
    ]},
    {"compound": "CCc1ccc(-c2ccc(C(=O)O)c(C)n2)cc1", "values": [
      {"measurement": "IC50", "setting": "[5]", "result": "> 109 µM (inactive)"},
      {"measurement": "IC50", "setting": "[6]", "result": "> 83.2 µM (inactive)"}
    ]},
    {"compound": "O=C(Cc1cccs1)Nc1ccc(S(=O)(=O)Nc2ncccn2)cc1", "values": [
      {"measurement": "IC50", "setting": "[7]", "result": "< 1.56 µM (active)"},
      {"measurement": "IC50", "setting": "[8]", "result": "0.0699 µM (not active)"}
    ]},
    {"compound": "O=C(N/N=C/c1ccc(N2CCOCC2)cc1)c1ccc(O)cc1", "values": [
      {"measurement": "EC50", "setting": "[15]", "result": "> 50 µM (active)"}
    ]},
    {"compound": "CCOC(=O)c1c(NC(=O)Cn2cnc([N+](=O)[O-])n2)sc2c1CCCC2", "values": [
      {"measurement": "EC50", "setting": "[1]", "result": "< 0.1 µM (active)"},
      {"measurement": "EC50", "setting": "[2]", "result": "0.121 µM (active)"},
      {"measurement": "EC50", "setting": "[4]", "result": "> 60 µM (not active)"}
    ]},
    {"compound": "O=C1CCCC(=O)C1CS(=O)(=O)c1ccccc1", "values": [
      {"measurement": "IC50", "setting": "[5]", "result": "> 109 µM (inactive)"},
      {"measurement": "IC50", "setting": "[17]", "result": "> 66 µM (inactive)"},
      {"measurement": "IC50", "setting": "[18]", "result": "> 66 µM (inactive)"},
      {"measurement": "IC50", "setting": "[6]", "result": "> 83.2 µM (inactive)"}
    ]},
    {"compound": "CN(CC(=O)Nc1ccc2c(c1)CCC2)CC(=O)Nc1ccccc1Br", "values": [
      {"measurement": "IC50", "setting": "[5]", "result": "> 109 µM (inactive)"},
      {"measurement": "IC50", "setting": "[6]", "result": "> 83.3 µM (inactive)"}
    ]},
    {"compound": "NC(=O)CC(NC(=O)c1ccccc1)c1ccc(NCC2CC2)c([N+](=O)[O-])c1", "note": "(configuration not stated)", "values": [
      {"measurement": "IC50", "setting": "[5]", "result": "> 109 µM (inactive)"},
      {"measurement": "IC50", "setting": "[6]", "result": "> 83.3 µM (inactive)"}
    ]},
    {"compound": "C/C(=N\\Nc1ccc(C)c(Cl)c1)c1cccnc1", "values": [
      {"measurement": "EC50", "setting": "[15]", "result": "> 50 µM (active)"}
    ]},
    {"compound": "CCc1ccc2c(c1)C1(C(=O)N2)N2CCCC2C(C(=O)c2ccc3ccccc3c2)C12C(=O)Nc1ccccc12", "note": "(configuration not stated)", "values": [
      {"measurement": "CC50", "setting": "[19]", "result": "16.2 µM (active)"},
      {"measurement": "AC50", "setting": "[20]", "result": "3.05 µM (active)"},
      {"measurement": "AC50", "setting": "[21]", "result": "6.87 µM (active)"},
      {"measurement": "EC50", "setting": "[13]", "result": "9.78 µM (active)"},
      {"measurement": "EC50", "setting": "[22]", "result": "10.1 µM (active)"},
      {"measurement": "EC50", "setting": "[23]", "result": "10.2 µM (active)"}
    ]}
  ]
}
